From patent US10227361B2, “Fused imidazobenzothiazole compounds” (TORRENT PHARMACEUTICALS LIMITED, priority 2014, dated 2019)

Tests used:
[1] = rheumatoid arthritis; possibly; cited from earlier work
[2] = system: tobacco smoke induced airway inflammation in mice; assay: Acute mouse model of tobacco smoke induced airway inflammation (BALF neutrophils); assay type: in vivo; conditions: BAL fluid, exposure 25 minutes; for Neutrophil (*10^3 cells/animal): Mean ± SEM
From the text: The tobacco smoke induced airway inflammation model is used for in vivo efficacy of compound. Many investigators have used acute tobacco smoke (TS) exposure in rodents as models of airway inflammation for quick screening of anti-inflammatory therapies for COPD (J Pharmacol Exp Ther. 2008; 324(3):921-9; J Pharmacol Exp Ther. 2010; 332(3):764-75; Journal of Inflammation 2013, 10(Suppl 1):31 and Eur Respir J Suppl 2006; 663s:3850). Given its position as predominant cause of COPD, animal models using TS exposure would appear to be the logical choice for investigation (Respir Res. 2004; 2; 5:18).
A: Efficacy Studies in Acute Mouse Model of Airway Inflammation
Mice were exposed to tobacco smoke (TS) in an acrylic chamber. Animals were exposed to TS from 8, 12, 16 cigarettes on day1, day2, day 3 respectively. From day 4 onwards till day 11, animals were exposed to TS from 20 cigarettes per day. On 11 days of exposure of mice to TS, significant inflammatory cell recruitment, predominantly neutrophils, to lungs was observed as compared to air exposed control mice (BALF neutrophil levels, nil in air control group vs 93.8±11.7*10^3 cells/animal in smoke exposed vehicle group).
Lung delivery of test compound was achieved by whole body aerosol exposure for 25 minutes in a chamber. Mice were divided in different dose groups and exposed in a chamber for 25 minutes with vehicle or Compound No. 22 (0.3 mg/ml) or Compound No. 22 (3 mg/ml)) or Compound No. 31 (0.3 mg/ml) or Compound No. 31 (1.0 mg/ml). A total quantity of 3.5 ml of either vehicle or test compound formulation (suspension formulation with D90<5μ, with Malvern Mastersizer®) was nebulized in a chamber to respective groups over 25 mins period. Test compounds were administered 2 hr prior to TS exposure from day 6 to day 11. Bronchoalveolar lavage (BAL) was performed 24 hr post last TS exposure.
Trachea of animal was cannulated using catheter. Phosphate Buffer Saline (PBS) was used as lavage fluid. A volume of 0.5 ml was gently instilled and withdrawn and collected in microcentrifuge tube placed on ice. This procedure was repeated further 2 times.
(§1) Lavage fluid was separated from cells by centrifugation and supernatant separated. The cell pallet was resuspended in known volume of PBS. Cells in aliquot were stained using Turk solution and total cell numbers were calculated by counting Turk stained aliquot under microscope using haemocytometer.
(§2) The residual cell suspension was resuspended and slides prepared using cyto centrifuge technique (Cytospin 4, Thermo Shandon). The slides were then fixed with methanol, air dried and stained with May Grunwald Giemsa stain. Up to 300 cells were counted and differentiated using standard morphometric techniques under light microscopy.
All results are presented at individual data for each animal and mean value calculated for each group. Percentage inhibition for the neutrophil was calculated for Compound No. 22 & 31 treatment group against vehicle group.

[3] = target: T1, purified recombinant human p38 alpha MAPK (Homo sapiens, UniProt Q16539); assay: Inhibition of p38 alpha MAPK activity: TR-FRET kinase assay; assay type: biochemical; conditions: read-out: P38α Inhibition
T1 construct: purchased Millipore, USA
T1 sequence (Q16539 whole entry): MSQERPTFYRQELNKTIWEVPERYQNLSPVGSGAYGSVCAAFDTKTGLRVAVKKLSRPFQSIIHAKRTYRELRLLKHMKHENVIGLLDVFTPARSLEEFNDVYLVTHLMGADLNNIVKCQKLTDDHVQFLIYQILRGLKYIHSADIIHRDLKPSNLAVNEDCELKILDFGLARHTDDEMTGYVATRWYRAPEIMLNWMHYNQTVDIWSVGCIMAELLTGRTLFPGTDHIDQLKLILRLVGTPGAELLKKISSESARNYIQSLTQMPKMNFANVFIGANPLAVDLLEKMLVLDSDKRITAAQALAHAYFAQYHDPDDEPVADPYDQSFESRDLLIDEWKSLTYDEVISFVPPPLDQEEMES
Procedure: Inhibition of p38 Alpha MAPK Activity: Time-Resolved Fluorescence Resonance Energy Transfer Kinase Standard Assay (TR-FRET Assay)
Compounds of present invention at various concentrations were premixed with DMSO. The experiment was initiated by mixing 0.5% 1.0% DMSO as vehicle/compounds with purified recombinant human p38 alpha MAPK (Millipore, USA) in the wells and 15 min incubation at RT. Thereafter, 30 nM of Biotinylated GST-ATF2 (Activation Transcription Factor2) and 100 μM of ATP were added in to the wells containing reaction mixture, followed by reincubation for 60 minutes at RT. Reaction was terminated by addition of 10 mM of EDTA and detection reagent containing anti-phosphothreonine ATF2 antibody (Perkin Elmer, USA) labelled with europium chelate and APC (Allophycocyanin) labeled streptavidin, into the reaction mixture which was further incubated for 60 minutes at room temperature. The degree of phosphorylation of the substrate (GST-ATF2) was measured using Envision multimode reader (Perkin Elmer). Percentage inhibition of p38 kinase activity was calculated by determining ratio of specific europium 665 nm energy transfer signal to reference 615 nm signal.

[4] = system: tobacco smoke induced airway inflammation in guinea pig; assay: Acute guinea pig model of tobacco smoke induced airway inflammation (BALF neutrophils); assay type: in vivo, Guinea pigs; conditions: BAL fluid, 6 mg/ml aerosol, exposure 75 minutes
From the text: B. (I) Efficacy Studies in Acute Guinea Pig Model of Airway Inflammation
Guinea pigs were exposed to tobacco smoke (TS) in an acrylic chamber. Animals were exposed to TS from 5, 10, 15 cigarettes on day 1, day 2, day 3 respectively. From day 4 onwards till day 11, animals were exposed to TS from 15 cigarettes per day. On 11 days of exposure of guinea pig to TS, significant inflammatory cell recruitment, predominantly neutrophils, to lungs was observed as compared to air exposed control guinea pig (BALF neutrophil levels, 0.23±0.052*10^6 cells/animal in air control group vs 3.5±0.62*10^6 cells/animal in smoke exposed vehicle group).
Lung delivery of test compound was achieved by whole body aerosol exposure for 75 minutes in a chamber. […] A total quantity of 7.0 ml of either vehicle or test compound formulation (suspension formulation with D90<5μ, with Malvern Mastersizer®) was nebulized in chambers to respective groups over 75 mins period. […]
Lavage fluid was separated from cells by centrifugation and supernatant separated. […] Cells in aliquot were stained using Turk solution and total cell numbers were calculated by counting Turk stained aliquot under microscope using haemocytometer. […]
All results are presented at individual data for each animal and mean value calculated for each group. Percentage inhibition for the neutrophil was calculated for Compound No 31 treatment group against vehicle group.

[5] = system: tobacco smoke (TS) and LPS induced chronic COPD model in guinea pigs; assay: Chronic model of COPD in guinea pigs (TS and LPS, 18 weeks); assay type: in vivo
Procedure: (II) Efficacy Studies in Chronic Model of COPD in Guinea Pigs
Guinea pigs were exposed to tobacco smoke (TS) and LPS in an acrylic chamber. Exposure to TS and LPS is given in the manner as illustrated in FIG. 3 in a week for a total of 18 weeks.
Lung delivery of test material was achieved by whole body aerosol exposure for 75 minutes in a chamber. Guinea pig were divided in different dose groups and exposed to vehicle or Compound No. 31 (2 mg/ml). A total quantity of 7.0 ml of either vehicle or Compound No. 31 (suspension formulation with D90<5μ, with Malvern Mastersizer®) was nebulized in chambers to respective groups over 75 mins period. Compound No 31 was administered 2 hr prior to TS/LPS exposure once daily from week 9 to week 18. Control animals were exposed to room air instead of TS and PBS instead of LPS. Lung function and bronchoalveolar lavage (BAL) for each animal was performed 24 hr post last TS exposure.
Lung function assessment in anesthetized and tracheotomized animal was carried out using PFT maneuvers (BUXCO, USA) for determination of various parameters such as Functional Residual Capacity (FRC), Residual volume (RV), Pressure volume and flow volume relationships.
Trachea of animal was cannulated using catheter. Phosphate Buffer Saline (PBS) was used as lavage fluid. A volume of 5.0 ml was gently instilled and withdrawn and collected in microcentrifuge tube placed on ice. This procedure was repeated further 5 times.
as §1, §2
After collection of BALF lung was fixed under constant pressure using neutral buffered formaline, which is to be used further for histopathological analysis. Hematoxylin and eosin stained slides were used for assessment of lung inflammatory cell influx and alveolar & epithelial inflammatory changes. Periodic acid-Schiff-diastase stained slides were used to evaluate mucin secreting cells and Masson's trichome stained slides were used for assessment of collagen fibers in parenchyma.
All results are presented at individual data for each animal and mean value calculated for each group. Percentage inhibition for the neutrophil was calculated for compound no 31 group against vehicle group.

[6] = treated up to 12-24 weeks; cited from earlier work
[7] = rheumatoid arthritis patients; single low dose tested; compared to placebo; cited from earlier work
[8] = dogs, 6-month safety study; cited from earlier work

Cc1ccc(-n2nc(C(C)(C)C)cc2NC(=O)Nc2ccc(OCCN3CCOCC3)c3ccccc23)cc1 [BIRB-796]
reason for withdrawal from Phase II clinical trials [1]: liver enzyme elevations

CC(C)(C)c1cc(NC(=O)NCc2ccccc2Oc2ccc3c(c2)sc2ncc(CO)n23)n(-c2ccc(O)c(Cl)c2)n1 [Compound 22, 1-[3-tert-butyl-1-(3-chloro-4-hydroxyphenyl)-1H-pyrazol-5-yl]-3-(2-{[3-(hydroxymethyl)imidazo[2,1-b][1,3]benzothiazol-7-yl]oxy}benzyl)urea]
% Inhibition (neutrophil, against vehicle group) ([2]; 0.3 mg/ml aerosol): 24% | Neutrophil (*10^3 cells/animal) ([2]; 0.3 mg/ml aerosol): 71.2 ± 13.6 *10^3 cells/animal | % Inhibition (neutrophil, against vehicle group) ([2]; 3 mg/ml aerosol): 62% | Neutrophil (*10^3 cells/animal) ([2]; 3 mg/ml aerosol): 35.2 ± 3.7 *10^3 cells/animal | inhibition at 1 µM ([3]; Concentration 1 μM): 80 to 100%

COCc1cnc2sc3cc(Oc4ccccc4CNC(=O)Nc4cc(C(C)(C)C)nn4-c4ccc(O)c(Cl)c4)ccc3n12 [Compound 31, 1-[3-tert-butyl-1-(3-chloro-4-hydroxyphenyl)-1H-pyrazol-5-yl]-3-(2-{[3-(methoxymethyl)imidazo[2,1-b][1,3]benzothiazol-7-yl]oxy}benzyl)urea]
% Inhibition (neutrophil, against vehicle group) ([2]; 0.3 mg/ml aerosol): 60% | Neutrophil (*10^3 cells/animal) ([2]; 0.3 mg/ml aerosol): 40.3 ± 6.2 *10^3 cells/animal | % Inhibition (neutrophil, against vehicle group) ([2]; 1.0 mg/ml aerosol): 80% | Neutrophil (*10^3 cells/animal) ([2]; 1.0 mg/ml aerosol): 20.4 ± 3.8 *10^3 cells/animal | % Inhibition (neutrophil, against vehicle group) [4]: 48% | Neutrophil (*10^6 cells/animal) ([4]; Mean ± SEM): 1.8 ± 0.28 *10^6 cells/animal | % inhib^n (neutrophil, against vehicle group) ([5]; guinea pig chronic COPD model, BALF, 2 mg/ml aerosol, 75 minutes): 52% | Neutrophil (*10^6cells) ([5]; guinea pig chronic COPD model, BALF, 2 mg/ml aerosol, 75 minutes, once daily week 9 to 18, Mean ± SEM): 3.3 ± 0.71 *10^6cells | Composite score (Range) ([5]; lung remodeling, histopathological analysis of lung tissue, 2 mg/ml): 0.4 (0.1 to 0.5) | Average number of mucin secreting cells/10 high power field (Range) ([5]; mucus secretion, 2 mg/ml): 301 (190-420) cells/10 high power field | inhibition at 0.1 µM ([3]; Concentration 100 nM): 80 to 100%

Cc1c(F)cc(C(=O)NC2CC2)cc1-c1ccc(C(=O)NCC(C)(C)C)cn1 [Losmapimod]
tolerability in clinical studies [6]: well tolerated

CNC(=O)c1ccc(C)c(-n2c(C)cc(OCc3ccc(F)cc3F)c(Br)c2=O)c1 [PH-797804]
tolerability in clinical studies [6]: well tolerated

O=c1ncn2nc(Sc3ccc(F)cc3F)ccc2c1-c1c(Cl)cccc1Cl [Vx-745]
clinical benefit [7]: significant clinical benefit compared to placebo | toxicity in safety study [8]: undisclosed CNS toxicity
